Our source for the IC50 values is BindingDB's records for patent US20260055108 (Hutchmed, 2026).

pIC50: −log10 of the molar value.

The target in the experiment is T1, Menin [2-610] (UniProt O00255).
T1 construct: 2-610
T1 sequence (O00255 whole entry): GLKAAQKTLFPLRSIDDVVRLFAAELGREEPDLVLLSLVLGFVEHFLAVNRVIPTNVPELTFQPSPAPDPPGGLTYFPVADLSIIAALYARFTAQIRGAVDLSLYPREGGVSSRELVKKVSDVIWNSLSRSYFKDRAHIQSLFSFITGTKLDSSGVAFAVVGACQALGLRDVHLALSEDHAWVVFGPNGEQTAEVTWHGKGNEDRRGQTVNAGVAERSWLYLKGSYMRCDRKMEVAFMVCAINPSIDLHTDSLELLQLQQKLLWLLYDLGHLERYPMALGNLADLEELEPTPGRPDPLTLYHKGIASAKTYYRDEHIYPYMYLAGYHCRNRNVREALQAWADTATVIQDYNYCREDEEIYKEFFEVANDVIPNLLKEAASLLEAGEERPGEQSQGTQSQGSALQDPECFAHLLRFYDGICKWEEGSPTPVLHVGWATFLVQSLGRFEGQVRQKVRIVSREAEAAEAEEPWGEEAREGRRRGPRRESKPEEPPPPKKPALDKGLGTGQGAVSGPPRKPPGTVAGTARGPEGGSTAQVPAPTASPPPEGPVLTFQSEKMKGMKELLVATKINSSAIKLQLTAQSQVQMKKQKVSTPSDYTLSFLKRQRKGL
Put plainly: Fluorescence Polarization Assay. On the procedure: 4 μL of 5× test compound was added to each reaction well of the 384-well plate, and the corresponding volume of 10% DMSO was added to the control wells. Except the control wells, 8 μL of Menin protein reaction solution was added to each well. The reaction solution was incubated at room temperature for 30 minutes, and then 8 μL of MLL polypeptide reaction solution was added to each well. The final concentrations of DMSO in the test compound wells and control wells were all 2%. The 384-well plate was sealed and incubated at room temperature for 30 minutes in the dark.

Turning to `CCNC(=O)N1CCC(CN2CCC3(CC2)CN(c2ncnnc2Oc2ccc(F)cc2C(=O)N(CC)C(C)C)C3)CC1` [US20260055108, Compound 28], the negative logarithm of the IC50 (pIC50) was 8.66.
